Measurements published in patent US6365616B1, “Methimazole derivatives and tautomeric cyclic thiones to treat autoimmune diseases” (Sentron Medical, Inc., priority 1998, dated 2002).
Where two headings read alike, the source gives them in different places.

Legend:
Format in all cases: cell-based, rat
MHC class I RNA = experiment: Northern analysis of MHC class I RNA levels in FRTL-5 cells; conditions: for inhibition at 1000 µM / inhibition at 5000 µM: Rattus norvegicus
[1] = test system: silencer complex with Fragment 140 (upstream silencer/enhancer) of the MHC Class I PD1 5′-flanking region; experiment: Gel shift (EMSA) with upstream 140 class I probe, extracts from treated FRTL-5 cells; conditions: 5H cells treated 48 hours
Protocol: FRTL-5 rat thyroid cells (Kohn, L. D., et al., U.S. Pat. No. 4,609,622 (1986); Ambesi-Impiombato E S., U.S. Pat. No. 4,608,341 (1986)) are grown as described below. […] Their doubling time was approximately 36±6 hours; and, after 6 days in medium with no TSH (5H) and 5.0% serum, […] TSH elevated iodide uptake 8-10 fold and thymidine incorporation>10 fold. Cells were diploid, between their 5th and 25th passage in most experiments, and were routinely grown in Coon's modified F12 medium supplemented with 5 % calf serum, 1 mmol/L nonessential amino acids (GIBCO) and a mixture of 6 hormones (6H medium): TSH (1×10^−10 M), insulin (10 μg/ml), hydrocortisone 0.4 ng/ml, human transferrin (5 μg/ml), somatostatin ([…]) and glycyl-L-histidyl-L-lysine acetate (10 ng/ml) (Kohn, L. D. et al., U.S. Pat. No. 4,609,622 (1986); Ambesi-Impiombato, E. S., U.S. Pat. No. 4,608,341 (1986)). They were passaged every 7-10 days and provided fresh media every 2 or 3 days. In individual experiments, cells were grown to near confluency in 6H medium then, in some experiments, were shifted to medium with no TSH (5H), to medium with neither TSH and or insulin (4H), or to medium with no TSH, no insulin and no hydrocortisone (3H) plus either 5% or 0.2% serum for 4-7 days before use.
(§1) Cells were grown in 6H medium with 5 % calf serum for 6-7 days to 70-80% confluence, then shifted to 5H medium with 5 % calf serum for 5 days. TSH (1×10^−10 M), gamma-interferon (100 U/ml), MMI (5 mM), and different concentrations of MMI derivatives or tautomeric cyclic thiones (0.0001 to 10 mM) were added as appropriate for […]. Cells were then harvested and extracts were made by a modification of a method of Dignam, J., et al. Methods in Enzymology, 101:582-598 (1983). In brief, cells were harvested by scraping after being washed twice with cold phosphate-buffer saline (PBS). Subsequently they were pelleted, washed in cold PBS and then pelleted again. The pellet was resuspended in Dignam buffer C (20 mM Hepes buffer at pH 7.9, 1.5 mM MgCl2, 0.42 M NaCl, 25% glycerol, 0.5 mM dithiotreitol (DTT), 0.5 mM phenylmethylsulfonylfluoride (PMSF), 1 […] pepstatin). The final NaCl concentration was adjusted on the basis of cell pellet volume to 0.42 M and cells were lysed by repeated cycles of freezing and thawing. Extracts were then centrifuged at 10,000×g at 4° C. for 20 min. The supernatant was recovered, aliquoted and stored at −70° C.
(§2) Binding reactions were performed in a volume of 20 μl for 30 min at room temperature. The typical reaction mixture contained 1.5 fmol of ^32P DNA, 3 μg of cell extracts, 1 to 3 μg of poly (dI-dC) in 10 mM Tris-Cl (pH 7.9), 1 mM MgCl2, 1 mM DTT, 1 mM ethylenediamine tetra acetic acid (EDTA), and 5 % glycerol. After incubation, reaction mixtures were subjected to electrophoresis in 4% polyacrylamide gels for 90-120 min at 160 V in 0.5× TBE (Sambrook, J., et al., Molecular Cloning: A Laboratory Manual, 2nd ed. Cold Spring Harbor Press, NY, 2: 11.23-11.44 (1989)), then dried and autoradiographed. Probes were labeled with [α32P] deoxy CTP by Klenow enzyme (In Vitro labeling kit, Amersham) following the manufacturer's instructions, or by [γ^32P] ATP using T4 polynucleotide kinase. Labeled probes were then purified either through G-50 columns (5 prime→3 Prime) or on an 8% polyacrylamide gel.
The effect of the addition of 5 mM MMI to cells for 48 hours prior to extract preparation from cells maintained in SH medium is shown in lane 1 of FIG. 2. The effect of the addition of 1 mM concentration of representative MMI derivatives to cells maintained in 5H medium for 48 hours prior to extract preparation is shown in lanes 3 to 8 in FIG. 2. The structures and names of the representative numbered compounds are in Table 1. The MMI or its derivatives decrease the silencer complex. The decrease can be quantitated by densitometry of autoradiograms or phosphoimaging on a Bas 1500 imager (for example). […]

[2] = test system: protein/DNA complex with Fragment 127 of the MHC class I 5′-flanking region; experiment: Gel shift (EMSA) with downstream 127 class I probe, extracts from treated FRTL-5 cells; conditions: 5H cells treated 48 hours
Protocol: as §1, §2
FIG. 3 denotes the sequence of the downstream region of the PD1 promoter. The location of enhancer A (−180 to −170 bp), the interferon response element (IRE; −161 to −150 bp), and the cAMP response element (CRE; −107 to −100 bp) are noted. The downstream silencer is between −127 and −80 bp (Saji, et al., ibid, 20096-20107 (1997)). Using a 127 bp probe, −125 to +1 bp, MMI (lane 4) or TSH (lane 10) induce the formation of a rapidly migrating protein/DNA complex (FIG. 4) which is clearly evident 24 to 48 h after SH cells are treated. MMI derivatives can also increase this complex, as illustrated for compound 8 in FIG. 4 (lanes 1 to 3). The time most suitable for measurement is 24 to 48 h (FIG. 4) the complex can be quantitated by comparison to control (lane 7 or 9) using densitometry or the phosphoimager as noted earlier. In this case, the increase over control (set at 1) is measured in arbitrary units relative to the maximal increase induced by 5 mM MMI which is arbitrarily set at 10. The results using all 11 compounds in Table 1, each added to cells at different concentrations 48 hours before extracts were prepared, are summarized in Table 3.

[3] = 100 μM, 100 U/ml γ-interferon, 6H medium (TSH), 40 hours
[4] = 100 μM, basal, 5H medium, 40 hours
[5] = FRTL-5, 1 mM, 100 U/ml γ-interferon, 6H medium (TSH), 40 hours, read-out: % inhibition of class I RNA expression (γ-interferon-treated)
[6] = FRTL-5, 1 mM, basal, 5H medium, 40 hours, read-out: % inhibition of class I RNA expression (basal)
[7] = FRTL-5, 5 mM, 100 U/ml γ-interferon, 6H medium (TSH), 40 hours, read-out: % inhibition of class I RNA expression (γ-interferon-treated)
[8] = FRTL-5, 5 mM, basal, 5H medium, 40 hours, read-out: % inhibition of class I RNA expression (basal)

Structure (SMILES)	% inhibition of class I RNA expression (γ-interferon-treated) (MHC class I RNA; [3])	% inhibition of class I RNA expression (basal) (MHC class I RNA; [4])	inhibition at 1000 µM (MHC class I RNA; [5])	inhibition at 1000 µM (MHC class I RNA; [6])	inhibition at 5000 µM (MHC class I RNA; [7])	inhibition at 5000 µM (MHC class I RNA; [8])	% inhibition of control silencer complex formation ([1]; 10 μM)	% inhibition of control silencer complex formation ([1]; 100 μM)	% inhibition of control silencer complex formation ([1]; 1 mM)	% inhibition of control silencer complex formation ([1]; 5 mM)	% increase over control relative to the maximal (5 mM) MMI-increased silencer complex which is set at 10 ([2]; 10 μM)	% increase over control relative to the maximal (5 mM) MMI-increased silencer complex which is set at 10 ([2]; 100 μM)	% increase over control relative to the maximal (5 mM) MMI-increased silencer complex which is set at 10 ([2]; 1 mM)	% increase over control relative to the maximal (5 mM) MMI-increased silencer complex which is set at 10 ([2]; 5 mM)	% inhibition of class I RNA expression (γ-interferon-treated) (MHC class I RNA; 1 mM, 100 U/ml γ-interferon, 6H medium (TSH), 40 hours)	% inhibition of class I RNA expression (basal) (MHC class I RNA; 1 mM, basal, 5H medium, 40 hours)	% inhibition of class I RNA expression (γ-interferon-treated) (MHC class I RNA; 5 mM, 100 U/ml γ-interferon, 6H medium (TSH), 40 hours)	% inhibition of class I RNA expression (basal) (MHC class I RNA; 5 mM, basal, 5H medium, 40 hours)	inhibition at 1000 µM (MHC class I RNA; FRTL-5, 40 h, read-out: % inhibition of class I RNA expression (basal))	inhibition at 1000 µM (MHC class I RNA; FRTL-5, 40 h, read-out: % inhibition of class I RNA expression (γ-interferon-treated))
Cn1ccnc1S [Compound 1, 1-Methylimidazole-2-thiol]	None	None	29 ± 7%	25 ± 10%	52 ± 15%	42 ± 8%	0%	0%	20 ± 15%	75 ± 12%	0%	0%	2 ± 1%	10%	–	–	–	–	–	–
Cc1ncc([N+](=O)[O-])n1CCO [Compound 2, 2-Methyl-5-nitro-1-imidazole ethanol]	None	None	42 ± 5%	49 ± 6%	68 ± 13%	63 ± 14%	0%	0%	45 ± 19%	86 ± 15%	0%	0%	5 ± 1%	10 ± 2%	–	–	–	–	–	–
Sc1ncc[nH]1 [Compound 3, 2-Mercaptoimidazole]	–	–	–	–	–	–	0%	0%	0%	0%	0%	0%	0%	0%	None	None	None	None	–	–
Sc1nc2ccccc2[nH]1 [Compound 4, 2-Mercaptobenzimidazole]	None	None	–	–	–	–	0%	5%	75 ± 10%	Insol	0%	3 ± 0.5%	9 ± 1.5%	Insol	–	–	–	–	34 ± 13%	37 ± 10%
O=[N+]([O-])c1ccc2[nH]c(S)nc2c1 [Compound 5, 2-Mercapto-5-nitrobenzimidazole]	None	None	19 ± 7%	32 ± 11%	–	–	0%	0%	0%	Insol	0%	0%	0%	Insol	–	–	–	–	–	–
Cc1ccc2[nH]c(S)nc2c1 [Compound 6, 2-Mercapto-5-methylbenzimidazole]	None	None	22 ± 16%	23 ± 15%	23 ± 11%	–	0%	0%	20 ± 18%	Insol	0%	0%	3 ± 2%	Insol	–	–	–	–	–	–
